Tests used:
Plasmodium falciparum [1] = experiment: Antiparasitic activity against Plasmodium falciparum D6; type: functional, organism-based
Plasmodium falciparum [2] = experiment: Antiparasitic activity against chloroquine-resistant Plasmodium falciparum W2; type: functional, organism-based
[3] = Effective concentration expressed as antiparasitic activity against Leishmania promastigotes (Leishmania donovani); NA = Not active; type: functional

NCCCN(Cc1ccncc1)Cc1ccncc1.O=C(O)C(F)(F)F
EC50 (Plasmodium falciparum [1]): Not Active
EC50 (Plasmodium falciparum [2]): Not Active
EC50 [3]: Not Active

COc1ccc(CN(CCCCN)Cc2ccc(OC)cc2OC)c(OC)c1.O=C(O)C(F)(F)F
EC50 (Plasmodium falciparum [1]; Plasmodium falciparum): 7.76 µM
EC50 (Plasmodium falciparum [2]): Not Active
EC50 [3]: Not Active

NCCCN(Cc1ccccc1)Cc1ccc(Cc2ccncc2)cc1.O=C(O)C(F)(F)F
EC50 (Plasmodium falciparum [1]): Not Active
EC50 (Plasmodium falciparum [2]): Not Active
EC50 [3]: Not Active

COc1cc(CN(CCCN)Cc2ccc(O)c(OC)c2)ccc1O.O=C(O)C(F)(F)F
EC50 (Plasmodium falciparum [1]): Not Active
EC50 (Plasmodium falciparum [2]): Not Active
EC50 [3]: Not Active
